# Values quoted from earlier work, collected in patent US6284909A, “Preparations of thiophosphites and thiophosphonates” (University of Southern California, priority 2000, dated 2001).
# Read-outs that look alike come from different tables or passages of the source.
# Assays:
# [1] = clinical trials
# [2] = tested on: HIV-1
# [3] = clinical trials; remark: listed apart in the source
# [4] = tested on: HIV; settings: U.S. Pat. Nos. 5,072,032 and 5,183,812
# [5] = tested on: H9 cells; settings: at effective antiviral doses
# [6] = tested on: HIV
# [7] = tested on: CMV; settings: in culture
# [8] = tested on: HIV reverse transcriptase
# [9] = tested on: DNA polymerase of Cytomegalovirus (CMV)
# [10] = tested on: Herpesvirus DNA polymerases
# [11] = tested on: human DNA polymerases
Compound,oral bioavailability [1],inhibition of HIV-1 [2],characterization of nephrotoxicity: serum creatinine [3],characterization of nephrotoxicity: tubulopathy [3],nephrotoxicity [3],"effectiveness against HIV, the AIDS virus [4]",toxicity to cultured H9 cells [5],antiviral activity against HIV compared to DNA polymerase inhibiting activity [6],antiviral activity against CMV-infected cells [7],"selectivity of inhibition of isolated HIV RT ([8]; in vitro, vs human DNA polymerases)","IC50 ([8]; isolated HIV RT, in vitro, Thiovir, read-out: IC50) [µM]",inhibition of the DNA polymerase of Cytomegalovirus (CMV) [9],inhibition of several Herpesvirus DNA polymerases [10],"inhibition of human DNA polymerases, compared with Thiovir [11]","IC50 ([8]; trisodium phosphonoformate, known, read-out: IC50 (HIV reverse transcriptase)) [µM]"
"O=C(O)P(=O)(O)O [PFA, phosphonoformic acid]",poor,shown to inhibit HIV-1,increased serum creatinine,acute toxic tubolopathy,reversible nephrotoxity,,,,,,,,,,
"O=C(O)P(O)(O)=S [Thiovir®, trisodium thiophosphonoformate]",,,,,,effective against HIV,non-toxic,unexpectedly high antiviral activity against HIV,exhibited antiviral activity against CMV-infected cells,selectively inhibited,~1,,,,
"O=C(O)P(=O)(O)O [foscarnet, Trisodium phosphonoformate]",,,,,,,non-toxic,,,,,inhibit,inhibit several Herpesvirus DNA polymerases,more inhibitory to human DNA polymerases,~1
